Molecular target: T1, human ACC2 (Homo sapiens, UniProt O00763)
T1 construct: made in house; host or cells: insect cells (baculoviral expression system)
Experiment: ACC2 assay, spectrophotometric 384 well assay (NADH-linked, coupled lactate dehydrogenase/pyruvate kinase)
Assay type: biochemical
Details: ACC2 assay, hACC2 construct lacking 128 N-terminal amino acids, 25° C., 340 nm; read-out: IC50
In short: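 ADP output tracked via pyruvate kinase/lactate dehydrogenase NADH oxidation, slope at 340 nm over 15 min, 25° C, with 500 μM ATP and 200 μM each acetyl-CoA and NADH. Enzyme: insect-cell-expressed human ACC2, N-terminal 128 residues deleted; pH 7.5 Tris with citrate, KHCO3. IC50 from four-parameter regression versus vehicle and no-acetyl-CoA controls.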

T1 sequence (O00763 129-2458 limits assumed): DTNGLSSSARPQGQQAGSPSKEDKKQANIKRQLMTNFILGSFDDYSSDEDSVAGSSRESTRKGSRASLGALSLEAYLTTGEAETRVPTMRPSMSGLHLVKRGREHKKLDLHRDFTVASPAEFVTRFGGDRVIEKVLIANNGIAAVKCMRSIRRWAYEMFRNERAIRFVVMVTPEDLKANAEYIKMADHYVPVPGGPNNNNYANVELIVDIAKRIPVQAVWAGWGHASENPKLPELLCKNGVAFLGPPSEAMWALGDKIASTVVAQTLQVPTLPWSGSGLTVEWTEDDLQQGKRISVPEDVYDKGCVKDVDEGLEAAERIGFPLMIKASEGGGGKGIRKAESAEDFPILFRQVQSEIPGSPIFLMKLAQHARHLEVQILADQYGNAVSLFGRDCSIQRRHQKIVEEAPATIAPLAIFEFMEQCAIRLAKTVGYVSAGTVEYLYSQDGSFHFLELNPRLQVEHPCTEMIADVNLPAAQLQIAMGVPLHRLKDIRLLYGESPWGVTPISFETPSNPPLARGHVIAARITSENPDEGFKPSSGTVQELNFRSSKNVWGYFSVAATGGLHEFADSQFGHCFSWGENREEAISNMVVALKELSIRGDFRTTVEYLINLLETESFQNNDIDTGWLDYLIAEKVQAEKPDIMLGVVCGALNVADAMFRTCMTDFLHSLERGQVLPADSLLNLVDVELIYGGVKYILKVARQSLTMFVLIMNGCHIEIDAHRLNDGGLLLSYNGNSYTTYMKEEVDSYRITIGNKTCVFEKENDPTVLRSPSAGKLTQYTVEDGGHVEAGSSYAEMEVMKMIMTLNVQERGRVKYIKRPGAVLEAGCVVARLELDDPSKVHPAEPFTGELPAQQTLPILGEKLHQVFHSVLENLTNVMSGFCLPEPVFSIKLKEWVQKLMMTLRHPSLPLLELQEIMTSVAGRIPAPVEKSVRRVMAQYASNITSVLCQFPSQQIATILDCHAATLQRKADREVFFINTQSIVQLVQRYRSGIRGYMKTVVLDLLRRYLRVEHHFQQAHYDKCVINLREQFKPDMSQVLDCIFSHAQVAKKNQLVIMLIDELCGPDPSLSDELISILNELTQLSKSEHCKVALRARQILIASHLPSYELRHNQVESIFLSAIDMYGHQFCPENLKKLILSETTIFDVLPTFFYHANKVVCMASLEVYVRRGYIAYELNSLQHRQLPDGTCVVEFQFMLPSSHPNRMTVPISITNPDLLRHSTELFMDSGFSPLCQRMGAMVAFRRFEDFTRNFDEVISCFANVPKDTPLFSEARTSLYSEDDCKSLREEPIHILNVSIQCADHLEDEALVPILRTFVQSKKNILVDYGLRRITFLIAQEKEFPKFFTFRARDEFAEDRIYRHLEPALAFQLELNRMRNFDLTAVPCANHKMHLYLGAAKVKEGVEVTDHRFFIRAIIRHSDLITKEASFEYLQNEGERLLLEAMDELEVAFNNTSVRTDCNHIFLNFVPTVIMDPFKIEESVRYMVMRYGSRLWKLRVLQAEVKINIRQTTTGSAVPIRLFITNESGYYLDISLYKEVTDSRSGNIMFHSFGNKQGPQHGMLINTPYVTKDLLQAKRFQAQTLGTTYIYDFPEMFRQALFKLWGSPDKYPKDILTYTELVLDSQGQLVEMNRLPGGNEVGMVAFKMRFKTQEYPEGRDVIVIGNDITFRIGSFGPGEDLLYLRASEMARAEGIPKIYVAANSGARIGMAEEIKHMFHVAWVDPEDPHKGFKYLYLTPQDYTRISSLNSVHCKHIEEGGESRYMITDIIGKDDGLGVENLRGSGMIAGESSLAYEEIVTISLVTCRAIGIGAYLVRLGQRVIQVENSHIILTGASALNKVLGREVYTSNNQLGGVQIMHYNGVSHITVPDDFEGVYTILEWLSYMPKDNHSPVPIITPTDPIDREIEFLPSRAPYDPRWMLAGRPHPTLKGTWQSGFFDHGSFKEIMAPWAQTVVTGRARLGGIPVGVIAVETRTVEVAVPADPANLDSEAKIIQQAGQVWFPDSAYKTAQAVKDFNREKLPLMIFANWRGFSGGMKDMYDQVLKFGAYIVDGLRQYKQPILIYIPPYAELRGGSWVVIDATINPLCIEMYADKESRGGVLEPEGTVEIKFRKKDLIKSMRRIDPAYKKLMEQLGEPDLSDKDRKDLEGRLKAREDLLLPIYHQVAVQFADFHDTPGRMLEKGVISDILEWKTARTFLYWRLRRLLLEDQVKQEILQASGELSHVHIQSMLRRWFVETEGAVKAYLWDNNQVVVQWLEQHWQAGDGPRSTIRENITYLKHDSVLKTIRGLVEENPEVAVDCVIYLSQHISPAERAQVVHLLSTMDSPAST

| IC50 [nM] | Structure (SMILES) |
| --- | --- |
| 810 | C[C@H](NC(=O)C1CC1)c1ccc(C2CCN(c3nc(N(C)CC4CC4)ncc3C#N)CC2)cc1 [Example 11.126] |
| 3500 | C[C@H](NC(=O)C1CC1)c1ccc(C2CCN(c3ncc(C#N)c(N(C)CC4CC4)n3)CC2)cc1 [Example 11.127] |
| 410 | C[C@H](NC(=O)C1CC1)c1ccc(C2CCN(c3ncnc(N(C)CC4CC4)c3F)CC2)cc1 [Example 11.128] |
| 1300 | CC(C)Oc1ncc(F)c(N2CCC(c3ccc([C@H](C)NC(=O)C4CC4)cc3)CC2)n1 [Example 11.129] |
| 370 | CC(C)Oc1ncnc(N2CCC(c3ccc([C@H](C)NC(=O)C4CC4)cc3)CC2)c1F [Example 11.130] |
| 1100 | CC(=O)N[C@@H](C)c1ccc(C2CCN(c3ccnc(OCC4CC4)n3)CC2)cc1 [Example 11.131] |
| 3000 | CC(=O)N[C@@H](C)c1ccc(C2CCN(c3cc(NC4CC4)ncn3)CC2)cc1 [Example 11.132] |
| 610 | CC(=O)NC(C)Cc1ccc(C2CCN(c3ccnc(N(C)C4CCCC4)n3)CC2)cc1 (stereo not drawn) [Example 12.1, N-[2-(4-{1-[2-(Cyclopentyl-methyl-amino)-pyrimidin-4-yl]-piperidin-4-yl}-phenyl)-1-methyl-ethyl]-acetamide] |
| 90 | CCCOc1ccc(N2CCC(c3ccc([C@H](C)NC(C)=O)cc3)CC2)c(C#N)c1 [Example 13.1, (S)—N-(1-{4-[1-(2-Cyano-4-propoxy-phenyl)-piperidin-4-yl]-phenyl}-ethyl)-acetamide] |
| 130 | CC(=O)N[C@@H](C)c1ccc(C2CCN(c3ccc(OCC4CC4)cc3C#N)CC2)cc1 [Example 13.2] |
| 170 | CCOc1ccc(N2CCC(c3ccc([C@H](C)NC(C)=O)cc3)CC2)c(C#N)c1 [Example 13.3] |
| 470 | CCOc1ccc(N2CCC(c3ccc([C@H](C)NC(=O)NC)cc3)CC2)cc1 [Example 14.1, (S)-1-(1-{4-[1-(4-Ethoxy-phenyl)-piperidin-4-yl]-phenyl}-ethyl)-3-methyl-urea] |
| 2700 | CCNC(=O)N[C@@H](C)c1ccc(C2CCN(c3ccc(OCC)cc3)CC2)cc1 [Example 14.2] |
| 1400 | CCOc1ccc(N2CCC(c3ccc([C@H](C)NC(=O)NC4CC4)cc3)CC2)cc1 [Example 14.3] |
| 1700 | CCOc1ccc(N2CCC(c3ccc([C@H](C)NC(N)=O)cc3)CC2)cc1 [Example 14.5] |
| 3800 | CCOc1ccc(N2CCC(c3ccc([C@H](C)NC(=O)N(C)C4CC4)cc3)CC2)cc1 [Example 14.50, (S)-1-Cyclopropyl-3-(1-{4-[1-(4-ethoxy-phenyl)-piperidin-4-yl]-phenyl}-ethyl)-1-methylurea] |
| 610 | CCOc1ccc(N2CCC(c3ccc([C@H](C)NC(=O)N(C)CC)cc3)CC2)cc1 [Example 14.51] |
| 4900 | CCOc1ccc(N2CCC(c3ccc([C@H](C)NC(=O)N(C)C(C)C)cc3)CC2)cc1 [Example 14.53] |
| 1100 | CCCN(C)C(=O)N[C@@H](C)c1ccc(C2CCN(c3ccc(OCC)cc3)CC2)cc1 [Example 14.54] |
| 1700 | CCOc1ccc(N2CCC(c3ccc([C@H](C)NC(=O)Nc4cccnc4)cc3)CC2)cc1 [Example 14.55] |
| 14700 | CCOc1ccc(N2CCC(c3ccc([C@H](C)NC(=O)Nc4ncccn4)cc3)CC2)cc1 [Example 14.56] |
| 14200 | CCOc1ccc(N2CCC(c3ccc([C@H](C)NC(=O)Nc4nccs4)cc3)CC2)cc1 [Example 14.57] |
| 7100 | CCOc1ccc(N2CCC(c3ccc([C@H](C)NC(=O)Nc4ccnnc4)cc3)CC2)cc1 [Example 14.58] |

| IC50 [nM] | Structure (SMILES) |
| --- | --- |
| 1500 | CCOc1ccc(N2CCC(c3ccc([C@H](C)NC(=O)Nc4cncnc4)cc3)CC2)cc1 [Example 14.59] |
| 2100 | CCOc1ccc(N2CCC(c3ccc([C@H](C)NC(=O)NCc4ccncn4)cc3)CC2)cc1 [Example 14.60] |
| 530 | CCOc1ccc(N2CCC(c3ccc([C@H](C)NC(=O)N(C)CCc4cn[nH]c4)cc3)CC2)cc1 [Example 14.61] |
| 13300 | CCOc1ccc(N2CCC(c3ccc([C@H](C)NC(=O)NCc4cncnc4)cc3)CC2)cc1 [Example 14.62] |
| 1600 | CCOc1ccc(N2CCC(c3ccc([C@H](C)NC(=O)N4CCOCC4)cc3)CC2)cc1 [Example 14.63] |
| 3800 | CCOc1ccc(N2CCC(c3ccc([C@H](C)NC(=O)N(C)Cc4ccn(C)n4)cc3)CC2)cc1 [Example 14.64] |
| 3700 | CCOc1ccc(N2CCC(c3ccc([C@H](C)NC(=O)N(C)CC4CC4)cc3)CC2)cc1 [Example 14.65] |
| 2200 | CCOc1ccc(N2CCC(c3ccc([C@H](C)NC(=O)N4CCC4)cc3)CC2)cc1 [Example 14.66] |
| 1900 | CCOc1ccc(N2CCC(c3ccc([C@H](C)NC(=O)N(CC)CC)cc3)CC2)cc1 [Example 14.67] |
| 7800 | CCOc1ccc(N2CCC(c3ccc([C@H](C)NC(=O)N4CCCC4)cc3)CC2)cc1 [Example 14.68] |
| 12100 | CCOc1ccc(N2CCC(c3ccc([C@H](C)NC(=O)N4CCCCC4)cc3)CC2)cc1 [Example 14.69] |
| 790 | CCOc1ccc(N2CCC(c3ccc([C@H](C)NC(=O)Nc4ccon4)cc3)CC2)cc1 [Example 14.70] |
| 2800 | COC(=O)Cc1ccc(N2CCC(c3ccc([C@H](C)NC(C)=O)cc3)CC2)cc1 [Example 15.1, (S)-(4-{4-[4-(1-Acetylamino-ethyl)-phenyl]-piperidin-1-yl}-phenyl)-acetic acid methyl ester] |
| 350 | COC(=O)c1cccc(N2CCC(c3ccc([C@H](C)NC(C)=O)cc3)CC2)c1 [Example 15.2] |
| 200 | CC(=O)N[C@@H](C)c1ccc(C2CCN(c3ccnc(OCc4ccccc4)c3)CC2)cc1 [Example 15.3] |
| 17700 | CC(=O)N[C@@H](C)c1ccc(C2CCN(c3ccc(C)nc3)CC2)cc1 [Example 15.5] |
| 260 | CC(=O)N[C@@H](C)c1ccc(C2CCN(c3ccc4oc(C(C)C)nc4c3)CC2)cc1 [Example 15.6] |
| 1500 | COCc1nc2cc(N3CCC(c4ccc([C@H](C)NC(C)=O)cc4)CC3)ccc2o1 [Example 15.7] |
| 8400 | CC(=O)N[C@@H](C)c1ccc(C2CCN(c3ccc(C(F)(F)F)nc3)CC2)cc1 [Example 15.8] |
| 19900 | COc1cncc(N2CCC(c3ccc([C@H](C)NC(C)=O)cc3)CC2)c1 [Example 15.9] |
| 3200 | CC(=O)N[C@@H](C)c1ccc(C2CCN(c3cnccc3C)CC2)cc1 [Example 15.10] |
| 160 | CC(=O)N[C@@H](C)c1ccc(C2CCN(c3ccc(-c4cccs4)nc3)CC2)cc1 [Example 15.11] |
| 2200 | CC(=O)N[C@@H](C)c1ccc(C2CCN(c3ccc(C(C)(C)C)nc3)CC2)cc1 [Example 15.12] |

| IC50 [nM] | Structure (SMILES) |
| --- | --- |
| 970 | CC(=O)N[C@@H](C)c1ccc(C2CCN(c3ccc4oc(C)nc4c3)CC2)cc1 [Example 15.13] |
| 880 | CC(=O)N[C@@H](C)c1ccc(C2CCN(c3ccc4oc(C5CC5)nc4c3)CC2)cc1 [Example 15.14] |
| 990 | CC(=O)N[C@@H](C)c1ccc(C2CCN(c3ccc4nc(C)oc4c3)CC2)cc1 [Example 15.15] |
| 300 | CCOC(=O)c1cc2cc(N3CCC(c4ccc([C@H](C)NC(C)=O)cc4)CC3)ccc2o1 [Example 15.17] |
| 330 | CCOc1ccc(N2CCC(c3ccc([C@H](C)NC(=O)OC)cc3)CC2)c(C#N)c1 [Example 15.18] |
| 3900 | CCC(NC(C)=O)c1ccc(C2CCN(c3ccnc(Oc4ccccc4)c3)CC2)cc1 (stereo not drawn) [Example 15.19] |
| 3900 | CCCOc1ccc(N2CCC(c3ccc(C(CC)NC(C)=O)cc3)CC2)c(OC)c1 (stereo not drawn) [Example 15.20] |
| 1200 | CCC(NC(C)=O)c1ccc(C2CCN(c3ccc(OCC(C)C)cc3)CC2)cc1 (stereo not drawn) [Example 15.21] |
| 6400 | CCCOc1ccc(N2CCC(c3ccc([C@@H](C)NC(C)=O)cc3)CC2)c(OC)c1 [Example 15.23] |
| 1400 | CCOc1ncc(N2CCC(c3ccc([C@H](C)NC(C)=O)cc3)CC2)cn1 [Example 16.1, (S)—N-(1-M{4-[1-(2-Ethoxy-pyrimidin-5-yl)-piperidin-4-yl]-phenyl}-ethyl)-acetamide] |
| 4800 | COc1ncc(N2CCC(c3ccc([C@H](C)NC(C)=O)cc3)CC2)cn1 [Example 16.2] |
| 620 | CCNc1ncc(N2CCC(c3ccc([C@H](C)NC(C)=O)cc3)CC2)cn1 [Example 16.4] |
| 2500 | CC(=O)N[C@@H](C)c1ccc(C2CCN(c3cnc(OCC4CC4)nc3)CC2)cc1 [Example 16.5] |
| 450 | C[C@H](NC(=O)N(C)C)c1ccc(C2CCN(c3cnc(OCC4CC4)nc3)CC2)cc1 [Example 16.6] |
| 1400 | CCOc1ncc(N2CCC(c3ccc([C@H](C)NC(=O)N(C)C)cc3)CC2)cn1 [Example 16.7] |
| 3900 | CCOc1ncc(N2CCC(c3ccc([C@H](C)NC(=O)C4CC4)cc3)CC2)cn1 [Example 16.8] |
| 6700 | C[C@H](NC(=O)C1CC1)c1ccc(C2CCN(c3cnc(NCC4CC4)nc3)CC2)cc1 [Example 16.9] |
| 930 | CCOc1ncc(N2CCC(c3ccc([C@H](C)NC(C)=O)cc3)CC2)c(OC)n1 [Example 16.10] |
| 1300 | COc1nc(OCC2CC2)ncc1N1CCC(c2ccc([C@H](C)NC(C)=O)cc2)CC1 [Example 16.11] |
| 2900 | CCOc1ccc(N2CCC(c3ccc([C@H](C)NS(C)(=O)=O)cc3)CC2)cc1 [Example 17.1, (S)—N-(1-{4-[1-(4-Ethoxy-phenyl)-piperidin-4-yl]-phenyl}-ethyl)-methanesulfonamide] |
| 4200 | CCOc1ccc(N2CCC(c3ccc([C@H](C)NS(=O)(=O)CC)cc3)CC2)cc1 [Example 17.2] |
| 7500 | CCOc1ccc(N2CCC(c3ccc([C@H](C)NS(=O)(=O)C4CCC4)cc3)CC2)cc1 [Example 17.3] |
| 11300 | CCOc1ccc(N2CCC(c3ccc([C@H](C)NS(=O)(=O)C(F)(F)F)cc3)CC2)cc1 [Example 17.4] |
